In publication PMC8885417, “Pharmacological targeting of MTHFD2 suppresses acute myeloid leukemia by inducing thymidine depletion and replication stress” (Nature Cancer, 2022):

Legend:
[1] = target: T1, MTHFD1-(DC) (Homo sapiens, UniProt P11586); assay: biochemical activity assay
T1 construct: dehydrogenase/cyclohydrolase (DC) domain

[2] = target: MTHFD2L (Homo sapiens, UniProt Q9H903); assay: biochemical activity assay
MTHFD2L, sequence (Q9H903 whole entry): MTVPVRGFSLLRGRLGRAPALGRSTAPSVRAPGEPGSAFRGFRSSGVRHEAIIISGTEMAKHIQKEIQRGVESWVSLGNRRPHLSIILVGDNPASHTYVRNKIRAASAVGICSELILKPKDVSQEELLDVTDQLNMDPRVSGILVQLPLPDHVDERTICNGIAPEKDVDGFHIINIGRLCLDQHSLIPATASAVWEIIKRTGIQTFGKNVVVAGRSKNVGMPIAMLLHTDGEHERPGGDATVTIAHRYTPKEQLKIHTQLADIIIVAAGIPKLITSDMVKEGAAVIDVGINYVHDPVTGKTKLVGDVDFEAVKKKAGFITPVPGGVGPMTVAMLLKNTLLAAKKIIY

T1 sequence (P11586 2-306 limits assumed): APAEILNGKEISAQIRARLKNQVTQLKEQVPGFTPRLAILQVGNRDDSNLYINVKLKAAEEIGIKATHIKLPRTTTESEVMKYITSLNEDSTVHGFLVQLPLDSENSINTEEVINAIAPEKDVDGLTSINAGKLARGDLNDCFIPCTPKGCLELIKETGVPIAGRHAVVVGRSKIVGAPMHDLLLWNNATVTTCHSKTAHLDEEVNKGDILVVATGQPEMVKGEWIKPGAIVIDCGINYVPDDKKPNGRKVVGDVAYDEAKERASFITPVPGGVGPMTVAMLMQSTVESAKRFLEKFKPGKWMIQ

Compound	IC50 [1]	IC50 [2]
Nc1nc2c(c(=O)[nH]1)N1C(=O)N(c3ccc(C(=O)N[C@@H](CCC(=O)O)C(=O)O)cc3)CC1CN2 (some centres unmarked) [LY345899]	0.535 µM	
Nc1nc(N)c(NC(=O)Nc2ccc(C(=O)N[C@@H](CCC(=O)O)C(=O)O)cc2)c(=O)[nH]1 [TH7299]		0.126 µM
